Laboratory results published in ChEMBL document CHEMBL1144174, “Design and synthesis of 6-fluoro-2-naphthyl derivatives as novel CCR3 antagonists with reduced CYP2D6 inhibition” (Bioorg Med Chem, 2008).
The source made the active and inactive calls. The rule behind the calls is not given here.

Legend:
Cytochrome P450 2D6 = Cytochrome P450 2D6 (Homo sapiens, UniProt P10635); assay: Inhibition of human CYP2D6 by fluorescence technique in presence of NADP; assay type: ADME
[1] = target: T1, C-C chemokine receptor type 3 (Homo sapiens, UniProt P51677); assay: Antagonist activity at CCR3 receptor expressed in mouse B300-19 cells assessed as inhibition of eotaxin-induced calcium influx by spectrophotometry; assay type: functional, cell-based
T1 sequence (P51677 whole entry): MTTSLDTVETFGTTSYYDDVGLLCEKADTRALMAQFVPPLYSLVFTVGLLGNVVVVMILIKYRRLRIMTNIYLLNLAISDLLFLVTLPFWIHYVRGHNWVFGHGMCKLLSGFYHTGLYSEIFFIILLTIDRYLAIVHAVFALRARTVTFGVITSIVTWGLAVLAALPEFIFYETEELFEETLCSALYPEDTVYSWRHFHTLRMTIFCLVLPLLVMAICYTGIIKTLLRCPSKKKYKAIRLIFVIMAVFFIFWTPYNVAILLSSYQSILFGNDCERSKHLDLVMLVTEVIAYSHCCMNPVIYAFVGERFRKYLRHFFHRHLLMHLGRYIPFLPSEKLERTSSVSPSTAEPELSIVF

[2] = target: T2, C-C chemokine receptor type 1 (Homo sapiens) (UniProt P32246); assay: Inhibition of CCR1 receptor at 10 uM
T2 sequence (whole entry): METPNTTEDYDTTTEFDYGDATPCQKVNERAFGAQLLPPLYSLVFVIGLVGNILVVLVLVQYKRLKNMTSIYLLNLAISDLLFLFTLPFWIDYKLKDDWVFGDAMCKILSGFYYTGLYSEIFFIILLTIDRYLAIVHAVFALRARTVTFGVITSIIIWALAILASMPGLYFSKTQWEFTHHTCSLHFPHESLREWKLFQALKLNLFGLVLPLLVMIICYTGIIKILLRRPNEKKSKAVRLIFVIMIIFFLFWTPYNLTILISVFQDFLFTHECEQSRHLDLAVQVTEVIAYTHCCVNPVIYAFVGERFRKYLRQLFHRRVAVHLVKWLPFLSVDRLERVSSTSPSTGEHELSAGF

[3] = target: C-C chemokine receptor type 2 (Homo sapiens) (UniProt P41597); assay: Inhibition of CCR2 receptor at 10 uM
[4] = target: C-C chemokine receptor type 5 (Homo sapiens) (UniProt P51681); assay: Inhibition of CCR5 receptor at 10 uM
Cytochrome P450 1A2 = target: T3, Cytochrome P450 1A2 (Homo sapiens, UniProt P05177); assay: Inhibition of human CYP1A2; assay type: ADME
T3 sequence (P05177 whole entry): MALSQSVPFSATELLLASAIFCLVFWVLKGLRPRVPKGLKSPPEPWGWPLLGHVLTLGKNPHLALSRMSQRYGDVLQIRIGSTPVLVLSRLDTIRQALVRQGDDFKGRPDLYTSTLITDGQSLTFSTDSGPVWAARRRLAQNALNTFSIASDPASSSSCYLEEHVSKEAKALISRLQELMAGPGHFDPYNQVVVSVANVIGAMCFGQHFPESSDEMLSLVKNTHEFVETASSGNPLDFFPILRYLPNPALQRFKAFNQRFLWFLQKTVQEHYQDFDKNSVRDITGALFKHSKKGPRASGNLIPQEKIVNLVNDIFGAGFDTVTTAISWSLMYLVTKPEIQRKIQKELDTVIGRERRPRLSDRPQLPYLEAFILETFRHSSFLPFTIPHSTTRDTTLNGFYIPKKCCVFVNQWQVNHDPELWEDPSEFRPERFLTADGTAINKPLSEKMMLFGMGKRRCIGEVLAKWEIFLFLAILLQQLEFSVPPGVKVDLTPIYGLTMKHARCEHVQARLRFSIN

Cytochrome P450 2C9 = Cytochrome P450 2C9 (Homo sapiens, UniProt P11712); assay: Inhibition of human CYP2C9; assay type: ADME
Cytochrome P450 2C19 = Cytochrome P450 2C19 (Homo sapiens, UniProt P33261); assay: Inhibition of human CYP2C19; assay type: ADME
Cytochrome P450 3A4 = Cytochrome P450 3A4 (Homo sapiens, UniProt P08684); assay: Inhibition of human CYP3A4; assay type: ADME
Sequence of Cytochrome P450 3A4 (P08684 whole entry): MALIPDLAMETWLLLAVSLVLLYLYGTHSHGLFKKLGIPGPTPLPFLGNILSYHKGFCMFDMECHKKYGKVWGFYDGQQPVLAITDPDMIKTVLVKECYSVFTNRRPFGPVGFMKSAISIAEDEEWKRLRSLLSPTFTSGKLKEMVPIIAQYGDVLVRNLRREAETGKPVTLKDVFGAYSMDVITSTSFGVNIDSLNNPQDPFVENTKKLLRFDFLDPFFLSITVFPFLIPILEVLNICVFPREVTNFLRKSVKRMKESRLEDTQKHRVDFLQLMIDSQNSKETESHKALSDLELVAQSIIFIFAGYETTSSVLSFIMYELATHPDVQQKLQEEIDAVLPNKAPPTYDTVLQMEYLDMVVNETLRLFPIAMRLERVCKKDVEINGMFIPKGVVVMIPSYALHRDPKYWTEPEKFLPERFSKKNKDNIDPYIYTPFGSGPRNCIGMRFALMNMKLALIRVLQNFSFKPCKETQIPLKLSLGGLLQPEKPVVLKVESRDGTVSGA

Sequence of Cytochrome P450 2D6 (P10635 whole entry): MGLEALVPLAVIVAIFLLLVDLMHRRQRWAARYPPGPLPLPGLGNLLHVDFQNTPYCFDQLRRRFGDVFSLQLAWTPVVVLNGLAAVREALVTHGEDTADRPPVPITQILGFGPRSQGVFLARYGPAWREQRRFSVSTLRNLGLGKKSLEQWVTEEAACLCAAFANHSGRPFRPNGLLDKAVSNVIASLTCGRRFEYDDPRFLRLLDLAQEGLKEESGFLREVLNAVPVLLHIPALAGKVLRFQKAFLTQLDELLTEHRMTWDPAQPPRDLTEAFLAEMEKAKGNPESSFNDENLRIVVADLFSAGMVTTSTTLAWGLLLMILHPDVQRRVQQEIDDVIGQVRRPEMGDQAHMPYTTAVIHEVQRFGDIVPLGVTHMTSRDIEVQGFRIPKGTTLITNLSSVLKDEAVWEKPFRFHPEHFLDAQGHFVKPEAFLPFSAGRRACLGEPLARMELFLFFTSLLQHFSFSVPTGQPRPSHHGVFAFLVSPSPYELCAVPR
Sequence of C-C chemokine receptor type 2 (Homo sapiens) (P41597 whole entry, looked up): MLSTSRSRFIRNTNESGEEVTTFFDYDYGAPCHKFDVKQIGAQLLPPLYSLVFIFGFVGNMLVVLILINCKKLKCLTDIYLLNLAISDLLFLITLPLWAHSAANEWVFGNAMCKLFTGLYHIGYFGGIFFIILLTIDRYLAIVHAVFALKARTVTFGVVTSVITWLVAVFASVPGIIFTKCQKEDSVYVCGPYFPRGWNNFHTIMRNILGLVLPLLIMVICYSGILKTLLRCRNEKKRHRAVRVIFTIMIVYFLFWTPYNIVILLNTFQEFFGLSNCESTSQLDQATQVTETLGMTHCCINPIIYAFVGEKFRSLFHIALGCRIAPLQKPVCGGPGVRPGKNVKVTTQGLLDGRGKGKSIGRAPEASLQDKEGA
Sequence of C-C chemokine receptor type 5 (Homo sapiens) (P51681 whole entry, looked up): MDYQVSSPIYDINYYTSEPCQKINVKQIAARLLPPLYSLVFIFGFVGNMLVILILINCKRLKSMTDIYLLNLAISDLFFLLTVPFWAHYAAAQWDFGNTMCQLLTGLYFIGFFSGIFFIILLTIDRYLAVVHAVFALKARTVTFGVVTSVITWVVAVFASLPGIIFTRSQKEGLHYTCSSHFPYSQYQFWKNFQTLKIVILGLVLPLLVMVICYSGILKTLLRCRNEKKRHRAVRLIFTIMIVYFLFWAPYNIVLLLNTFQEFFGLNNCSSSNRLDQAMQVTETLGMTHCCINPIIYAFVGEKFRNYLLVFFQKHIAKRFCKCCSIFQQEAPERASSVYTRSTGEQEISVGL
Sequence of Cytochrome P450 2C19 (P33261 whole entry): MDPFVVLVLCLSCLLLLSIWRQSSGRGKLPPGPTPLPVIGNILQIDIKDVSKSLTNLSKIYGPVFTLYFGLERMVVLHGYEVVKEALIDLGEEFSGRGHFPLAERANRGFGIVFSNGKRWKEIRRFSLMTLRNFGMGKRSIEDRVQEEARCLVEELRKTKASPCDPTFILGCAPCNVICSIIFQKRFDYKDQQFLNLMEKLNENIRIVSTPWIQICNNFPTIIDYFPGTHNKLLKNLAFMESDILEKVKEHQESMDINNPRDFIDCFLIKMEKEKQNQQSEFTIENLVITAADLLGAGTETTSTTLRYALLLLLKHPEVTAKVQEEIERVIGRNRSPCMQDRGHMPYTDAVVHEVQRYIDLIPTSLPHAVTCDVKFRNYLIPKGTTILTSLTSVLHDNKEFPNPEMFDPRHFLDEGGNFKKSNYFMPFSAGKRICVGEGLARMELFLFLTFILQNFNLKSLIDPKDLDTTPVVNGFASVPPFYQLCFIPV
Sequence of Cytochrome P450 2C9 (P11712 whole entry): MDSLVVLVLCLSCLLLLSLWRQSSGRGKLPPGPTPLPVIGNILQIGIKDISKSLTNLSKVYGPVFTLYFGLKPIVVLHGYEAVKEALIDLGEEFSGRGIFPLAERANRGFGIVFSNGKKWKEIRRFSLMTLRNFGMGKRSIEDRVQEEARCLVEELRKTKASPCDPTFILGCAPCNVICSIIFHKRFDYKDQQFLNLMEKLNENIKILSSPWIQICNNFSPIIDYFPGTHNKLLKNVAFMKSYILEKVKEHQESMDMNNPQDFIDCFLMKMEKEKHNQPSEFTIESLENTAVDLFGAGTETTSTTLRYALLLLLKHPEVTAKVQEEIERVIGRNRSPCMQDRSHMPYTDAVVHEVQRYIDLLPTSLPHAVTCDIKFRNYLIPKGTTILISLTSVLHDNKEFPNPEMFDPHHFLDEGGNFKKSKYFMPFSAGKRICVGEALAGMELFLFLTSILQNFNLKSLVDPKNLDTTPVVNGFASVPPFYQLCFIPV

IC50 (Cytochrome P450 2D6)	IC50 [1]	Structure (SMILES)	other results
6500 nM	23 nM	O=C(N[C@@H]1C[C@H]2CC[C@@H](C1)N2Cc1ccc2cc(F)ccc2c1)c1ccccc1C(=O)N1CCCCC1	
7300 nM	225 nM	O=C(N[C@@H]1C[C@H]2CC[C@@H](C1)N2Cc1ccc2cc(F)ccc2c1)c1ccccc1C(=O)N1CCCC1	
1600 nM	29 nM	O=C(N[C@@H]1C[C@H]2CC[C@@H](C1)N2Cc1ccc2cc(F)ccc2c1)c1ccccc1-c1cccnc1	
	613 nM	O=C(N[C@@H]1C[C@H]2CC[C@@H](C1)N2Cc1ccc2cc(F)ccc2c1)c1ccccc1-c1ccncc1	
26700 nM	85 nM	O=C(N[C@@H]1C[C@H]2CC[C@@H](C1)N2Cc1ccc2cc(F)ccc2c1)c1cnccc1C(=O)N1CCCCC1	
8200 nM	679 nM	O=C(N[C@@H]1C[C@H]2CC[C@@H](C1)N2Cc1ccc2cc(F)ccc2c1)c1ccccc1C(=O)N1CCOCC1	
3000 nM	12 nM	O=C(N[C@@H]1C[C@H]2CC[C@@H](C1)N2Cc1ccc2cc(F)ccc2c1)c1ccccc1C(=O)N1CCCCCC1	
23500 nM	131 nM	O=C(N[C@@H]1C[C@H]2CC[C@@H](C1)N2Cc1ccc2cc(F)ccc2c1)c1ncccc1C(=O)N1CCCCC1	
580 nM	118 nM	O=C(N[C@@H]1C[C@H]2CC[C@@H](C1)N2Cc1ccc2cc(F)ccc2c1)c1ccccc1OC1CCCCC1	
	279 nM	O=C(N[C@@H]1C[C@H]2CC[C@@H](C1)N2Cc1ccc2cc(F)ccc2c1)c1ccccc1N1CCCCC1	

The next lines start with the compound.

Structure (SMILES)	IC50 (Cytochrome P450 2D6)	IC50 [1]	other results
O=C(N[C@@H]1C[C@H]2CC[C@@H](C1)N2Cc1ccc2cc(F)ccc2c1)c1ccccc1-c1ccccn1	4000 nM	57 nM	
O=C(N[C@@H]1C[C@H]2CC[C@@H](C1)N2Cc1ccc2cc(F)ccc2c1)c1ccccc1-c1cncnc1	2900 nM	93 nM	
O=C(N[C@@H]1C[C@H]2CC[C@@H](C1)N2Cc1ccc2cc(F)ccc2c1)c1ccccc1-c1nccs1	2400 nM	89 nM	
CN(C(=O)c1ccccc1C(=O)N[C@@H]1C[C@H]2CC[C@@H](C1)N2Cc1ccc2cc(F)ccc2c1)C1CCCCC1	2900 nM	44 nM	
O=C(N[C@@H]1C[C@H]2CC[C@@H](C1)N2Cc1ccc2cc(F)ccc2c1)c1ccccc1-n1ccnc1		217 nM	
O=C(N[C@@H]1C[C@H]2CC[C@@H](C1)N2Cc1ccc2cc(F)ccc2c1)c1cc[n+]([O-])cc1C(=O)N1CCCCC1			Activity [2]: inactive; Activity [3]: inactive; Activity [4]: inactive
CN1CCN(C(=O)c2ccccc2C(=O)N[C@@H]2C[C@H]3CC[C@@H](C2)N3Cc2ccc3cc(F)ccc3c2)CC1	7100 nM	482 nM	
O=C(N[C@@H]1C[C@H]2CC[C@@H](C1)N2Cc1ccc2cc(F)ccc2c1)c1cccnc1C(=O)N1CCCCC1	18300 nM	98 nM	
O=C(N[C@@H]1C[C@H]2CC[C@@H](C1)N2Cc1ccc2cc(F)ccc2c1)c1ccccc1-n1cccc1		221 nM	
O=C(NC1C[C@H]2CC[C@H](C1)N2Cc1ccc2cc(F)ccc2c1)c1ccccc1-c1ccccc1 (stereo partly specified)			IC50 (Cytochrome P450 1A2): > 20000 nM; IC50 (Cytochrome P450 2C9): > 20000 nM; IC50 (Cytochrome P450 2C19): > 20000 nM; IC50 (Cytochrome P450 3A4): > 20000 nM
O=C(N[C@@H]1C[C@H]2CC[C@@H](C1)N2Cc1ccc2cc(F)ccc2c1)c1ccncc1C(=O)N1CCCCC1	6800 nM	13 nM	
